Laboratory results as given in paper PMC4976923, “Potent Allosteric Dengue Virus NS5 Polymerase Inhibitors: Mechanism of Action and Resistance Profiling” (PLoS Pathogens, 2016).
Like-named read-outs stand apart in the source and are kept apart here.

What was measured:
[1] = biological target: T1, DENV1 FL NS5 (Dengue virus type 1, UniProt P17763); assay: DENV1 FL NS5 de novo initiation FAPA assay; format: biochemical; conditions: one experiment; read-out: DENV FL NS5 de novo initiation FAPA, IC50, DENV1
T1 construct: 100 nM DENV FL NS5 protein was added; made in house
Experimental: (§1) DENV1-4 FL NS5 dnI assays were performed as described previously. Briefly, compounds from 0–20 or -100 μM concentrations are two-fold serially diluted into 384-well black opaque plates (Corning Costar), after which 100 nM DENV FL NS5 protein was added and the plates incubated at RT for 20 min. RNA and ATTO-CTP, ATP, GTP and UTP were then added and the plates incubated for another 120 min. Reactions were stopped with buffer containing 25 nM CIP, re- incubated at RT for 60 min and read on a Tecan Safire II microplate reader. For order-of-addition experiments, DENV4 FL NS5 was incubated for one hour at RT with RNA, ATP, and GTP or RNA, ATP, GTP and ATTO-CTP, followed by exposure to serially diluted compounds for 20 min at RT. The missing components (ATTO-CTP and UTP or UTP alone) were added and the reactions continued for 120 min after which STOP buffer was added as before. All datapoints were performed in duplicate wells. Each compound was tested at least twice.
(§2) 2 Co mpound testing with DENV dn I FAPA assays. Final dn I assa y reaction mixtures
(§3) 3 contained 100 nM DENV 5 ´UTR-L-3´UTR IVT RNA, 20 µ M ATP, 20 µM GTP, 20 µM
(§4) 4 UTP, 5 µM ATTO -CTP, and 100 nM of DENV FL NS5 protein in 15 µl in assa y buffer
(§5) 5 comprising 50 mM Tris/ HCl, pH 7.5, 10 mM KCl, 1 mM MgCl2, 0.3 mM MnCl2 (DENV2
(§6) 6 and 4) or 1 mM MnCl 2 (DENV1 and 3), 0.001% Triton- X-100 and 10 µ M cystein e [ 1] . To
(§7) 7 perform dose-respons e inhibition measurements, compounds from 0- 20 or - 100 µM
(§8) 8 concentr ations are two -fold seriall y diluted into 384-well black opaqu e plat es (Corning
(§9) 9 Costar), after which 100 nM DENV FL NS5 protein was added into resp ect ive wells. The
(§10) 10 plates wer e sealed, b riefl y shak en and centrif uged at 1500 rpm for 30 sec and incubated at RT
(§11) 11 for 15 min. Thereafter,RNA and ATTO -CTP, ATP, GTP and UTP were added to the wells to
(§12) 12 start the reactions. The pl ates wer e re-seal ed, shaken and centrifuged as before, followed b y
(§13) 13 incubation RT for 120 min. Reactions were stopped by addition of 10 µl of 2.5X STOP
(§14) 14 buffer (200 mM NaCl, 25 mM MgCl2, 1.5M DEA, pH 10; Promega) with 25 nM calf
(§15) 15 intestinal phosphatase (CIP), re- incubation at RT for 60 min and read on a Tecan Safire II
(§16) 16 microplate reader. For o r der-of-addition experiments, DENV4 FL NS5 was incubated for one
(§17) 17 hour at RT with RNA, ATP, and GTP or RNA, ATP, GTP and ATTO-CTP, followed by
(§18) 18 exposure to seriall y dilut ed compounds for 20 mi n at RT. The missing components (ATTO-
(§19) 19 CTP and UTP or UTP alone) were added and the reactions continued for 120 min after which
(§20) 20 STOP buffer was added as before. All datapoints were performed in duplicate wells. Each
(§21) 21 compound was tested at l east twice.
(§22) 23 Compound testing in DENV1-4 infected cells by high content imaging. Approximatel y 7
(§23) 24 × 10^3 A549 cells per well were s eeded into 384-well plates in Ham’s F-12K medium

[2] = biological target: T2, DENV2 FL NS5 (Dengue virus type 2, UniProt P14340); assay: DENV2 FL NS5 de novo initiation FAPA assay; format: biochemical; conditions: one experiment; read-out: DENV FL NS5 de novo initiation FAPA, IC50, DENV2
T2 construct: made in house
Experimental: as §1, with “Reactions were stopped with buffer containing 25 nM CIP, re- incubated at RT for 60 min and read on a Tecan Safire II microplate reader.” left out
as §2, §3, §4, §5, §6, §7, §8, §9, §10, §11, §12
(§24) 13 incubation RT for 120 min.
as §15, §16, §17, §18, §19, §20, §21, §22, §23

[3] = test system: DENV2-NGC Ren-LUC Replicon in HuH-7; assay: Stable HuH-7 DENV2-NGC renilla luciferase replicon assay; format: cell-based; conditions: Dengue virus, DENV2, Huh-7, 48 h, read-out: HuH-7 DENV Replicon, DENV2, EC50
[4] = biological target: T3, DENV4 FL NS5 (Dengue virus type 4, UniProt P09866); format: biochemical; conditions: for mode of inhibition with respect to viral RNA substrate / mode of inhibition with respect to GTP: Lineweaver-Burk plots; for mode of inhibition with respect to viral RNA substrate: 0–500 nM RNA; for mode of inhibition with respect to GTP: 0–50 μM GTP
T3 construct: 100 nM DENV FL NS5 protein was added; made in house

[5] = biological target: T3, DENV4 FL NS5; assay: biochemical
Experimental: as §1, with “Reactions were stopped with buffer containing 25 nM CIP, re- incubated at RT for 60 min and read on a Tecan Safire II microplate reader.” left out
as §2, §3, §4, §5, §6, §7, §8, §9, §10, §11, §12, §24, §15, §16, §17, §18, §19, §20
21 compound was tested at l east twice. […]

[6] = biological target: T4, DENV4 FL NS5 S797A (Dengue virus type 4, UniProt P09866, S3284A); format: biochemical; conditions: dnI FAPA; one experiment
T4 construct: Site-directed alanine mutations of DENV4 FL NS5 cDNA; made in house

[7] = in vitro; format: cell-based; conditions: human, HuH-7 (DENV2 replicon cells); 48 hr; ATP levels
Experimental: A549, BHK-21 and Huh7 cells bearing stable DENV2 sub-genomic replicon or transiently electroporated DENV2-NGC replicon or infectious virus cDNAs were seeded into 384-well microplate (3,000 cells per well). After over-night incubation at 37°C with 5% CO2, the cells were treated with 2-fold serially diluted compounds, starting from 20 or 50 μM. At 48 hr of post-incubation, renilla luciferase activities were measured with the ViviRen live-cell substrate (Promega, USA) according to the manufacturer’s protocol. CellTiter-Glo reagent (Promega, USA) was then added to determine cytotoxic effects of compounds. For the HCV replicon assay, Huh-7.5 cells harboring the HCV replicon were seeded into a 96-well microplate (20,000 cells per well). At 48 hr after compound treatment, cells were assayed for firefly luciferase activity by using a Bright-Glo luciferase assay (Promega, USA). NITD-008, a nucleoside inhibitor of DENV and HCV was added as a control.

[8] = biological target: T3, DENV4 FL NS5; assay: biochemical; conditions: Enzyme + compound; averaged from >3 experiments; read-out: Elongation IC50
[9] = biological target: T5, DENV4 FL NS5 W803A (Dengue virus type 4, UniProt P09866, W3291A); format: biochemical; conditions: dnI FAPA; one experiment
T5 construct: Site-directed alanine mutations of DENV4 FL NS5 cDNA; made in house

[10] = biological target: T6, DENV3 FL NS5 (Dengue virus type 3, UniProt Q6YMS4); assay: DENV3 FL NS5 de novo initiation FAPA assay; format: biochemical; conditions: one experiment; read-out: DENV FL NS5 de novo initiation FAPA, IC50, DENV3
T6 construct: 100 nM DENV FL NS5 protein was added; made in house
Experimental: as §1, §2, §3, §4, §5, §6, §7, §8, §9, §10, §11, §12, §13, §14, §15, §16, §17, §18, §19, §20, §21, §22, §23

[11] = biological target: T3, DENV4 FL NS5; conditions: Enzyme + compound 20 min, then ssRNA and nucleotides, 2 hr; read-out: DENV FL NS5 de novo initiation FAPA, IC50, DENV4; cited from earlier work
[12] = biological target: DENV4 RdRp domain (aa 268–900) (Dengue virus type 4, UniProt P09866); assay: Thermo-denaturation assay, recombinant RdRp domain; format: binding; conditions: +50 μM compound; DMSO control 50
Experimental: (§25) Site-directed alanine mutations of DENV4 FL NS5 cDNA were performed using pET28-D4-MY01-22713 NS5FL [23] as a template, according to the manufacturer’s protocol (Stratagene, USA). Protein expressions of DENV1-4 FL NS5 and their stability analyses by thermo-fluorescence were performed as described previously. DENV de novo initiation and elongation FAPA assays were earlier described. […]
(§26) 6 Fi g .5. Ef fects of N -pocket compounds on DENV pol ymerase thermo-stability. Melting
(§27) 7 temperatur e (Tm) w as ass essed b y thermo-d enatur ation in presence of the S YPRO Oran ge
(§28) 8 dye as described in Materials and Methods. (A-F) Representative meltin g curves of DEN V4
(§29) 10 inhibitors or 5 % DMSO control. […]
(§30) 16 controls treated with DMSO.

[13] = test system: DENV4 FL NS5; assay: Thermo-denaturation assay, recombinant FL NS5; format: binding; conditions: +50 μM compound; DMSO control 42.5
Experimental: as §25, §26, §27, §28, §29, §30

[14] = Enzyme + compound 20 min, then ssRNA and nucleotides, 2 hr, averaged from ≥3 experiments, read-out: DENV FL NS5 de novo initiation FAPA, IC50, DENV4
[15] = representative dose-response curve, read-out: IC50, best-fit value of representative curve (Fig 1A in S1 Text)

SMILES	IC50 [1]	IC50 [2]	EC50 [3]	mode of inhibition with respect to viral RNA substrate [4]	mode of inhibition with respect to GTP [4]	IC50 [5, 14]	IC50 ([5]; compound added to enzyme-dsRNA complex, read-out: de novo IC50, order of addition: [Enzyme + RNA+ ATP+GTP+ATTO-CTP] + compound)	IC50 ([5]; compound added to enzyme-dsRNA complex, read-out: de novo IC50, order of addition: [Enzyme + RNA+ATP+GTP] + compound)	IC50 ([5]; compound added to pre-formed enzyme-ssRNA complex, read-out: de novo IC50, order of addition: [Enzyme + RNA] + compound)	IC50 [5, 15]	S797A IC50 [6]	CC50 [7]	IC50 [8]	W803A IC50 [9]	IC50 [10]	IC50 [11]	Protein melting temperature Tm with compound, RdRp domain [12]	Protein melting temperature Tm with compound, FL NS5 [13]	mode of inhibition at high GTP concentrations ([4]; high GTP concentrations)
Nc1nc2c(ncn2[C@@H]2O[C@H](COP(=O)(O)OP(=O)(O)OP(=O)(O)O)C[C@H]2O)c(=O)[nH]1 [3'dGTP, reference compound]	520 nM	620 nM	> 100000 nM	non-competitive	competitive	790 ± 200 nM	710 ± 200 nM	740 ± 260 nM	440 ± 20 nM	513 nM	retained the same IC50	> 100000 nM	430 ± 290 nM	retained the same IC50	270 nM	–	–	–	–
COc1ccc(CC(=O)O)cc1-c1ccccc1 [Compound 3]	769000 nM	769000 nM	> 100000 nM	–	–	–	–	–	–	788000 nM	–	> 100000 nM	–	–	796000 nM	733000 ± 10600 nM	–	–	–
COc1ccc(CC(=O)O)cc1-c1ccc(Cl)s1 [Compound 3i]	46600 nM	37200 nM	> 100000 nM	–	–	30700 ± 9400 nM	–	–	–	30900 nM	–	> 100000 nM	–	–	66800 nM	–	–	–	–
O=C(O)Cc1cc(CC(=O)O)cc(-c2ccc(Cl)s2)c1 [Compound 11]	7100 nM	39700 nM	> 100000 nM	–	–	–	–	–	–	–	–	> 100000 nM	–	–	10700 nM	–	–	–	–
O=C(O)Cc1cc(CC(=O)O)cc(-c2ccc(C#CCO)s2)c1 [Compound 15]	300 nM	2200 nM	> 100000 nM	uncompetitive	uncompetitive inhibition	–	–	–	–	–	–	> 100000 nM	–	–	460 nM	–	65 °C	52 °C	non-competitive mode of inhibition
COc1cc(C)c(C(=O)NS(=O)(=O)c2ccccc2)cc1-c1ccc(C#CCO)s1 [Compound 25]	33 nM	106 nM	11400 nM	–	–	–	–	–	–	281 nM	–	> 100000 nM	–	–	40 nM	165 ± 108 nM	–	–	–
COc1cc(OC)c(-c2ccc(C#CCO)s2)cc1C(=O)NS(=O)(=O)c1ccccc1 [Compound 26]	75 nM	145 nM	21000 nM	–	–	–	–	–	–	115 nM	–	> 100000 nM	–	–	57 nM	251 ± 129 nM	–	–	–
